According to the NIST ThermoML archive (doi:10.1021/acs.jced.5b00242):

Assays:
[1] = Liquid; for mass density: Vibrating tube method
[2] = refractive index (Na D-line) (dimensionless); conditions: 101 kPa, Liquid, Standard Abbe refractometry
[3] = refractive index (Na D-line) (dimensionless); xn = mol fraction of the nth substance listed; conditions: 101 kPa, Liquid, Standard Abbe refractometry, x1 = 1
[4] = xn = mol fraction of the nth substance listed; conditions: 101 kPa, Liquid, x1 = 1; for mass density: Vibrating tube method

CCn1cc[n+](C)c1.N#C[C-](C#N)C#N [1-ethyl-3-methyl-1H-imidazolium tricyanomethanide]
[1], 101 kPa, Stabinger viscometer
Conditions | viscosity [mPa·s]
293.15 K | 16.62
298.15 K | 14.19
303.15 K | 12.18
308.15 K | 10.58
313.15 K | 9.02
318.15 K | 8.2
323.15 K | 7.31
328.15 K | 6.56
333.15 K | 5.72
338.15 K | 5.38
343.15 K | 4.91
348.15 K | 4.5
353.15 K | 3.98

[1], 101 kPa
Conditions | mass density [kg/m3]
293.15 K | 1085
298.15 K | 1081
303.15 K | 1077
308.15 K | 1074
313.15 K | 1070
318.15 K | 1067
323.15 K | 1064
328.15 K | 1060
333.15 K | 1057
338.15 K | 1054
343.15 K | 1050
348.15 K | 1047
353.15 K | 1043

[2]
Conditions | refractive index
293.15 K | 1.51454
298.15 K | 1.51286
303.15 K | 1.51114
308.15 K | 1.50938
313.15 K | 1.50765
318.15 K | 1.50595
323.15 K | 1.50419
328.15 K | 1.50255
333.15 K | 1.50087
338.15 K | 1.49921
343.15 K | 1.49757
348.15 K | 1.49593
353.15 K | 1.49429

CCn1cc[n+](C)c1.N#C[C-](C#N)C#N [1-ethyl-3-methyl-1H-imidazolium tricyanomethanide] + CCn1cc[n+](C)c1.O=C([O-])[C@@H]1CCCN1
Conditions | mass density, [4] [kg/m3] | refractive index, [3]
293.15 K | 1084.6 | 1.51454
298.15 K | 1081 | 1.51286
303.15 K | 1077.5 | 1.51114
308.15 K | 1073.9 | 1.50938
313.15 K | 1070.4 | 1.50765
318.15 K | 1067.1 | 1.50595
323.15 K | 1063.7 | 1.50419
328.15 K | 1060.3 | 1.50255
333.15 K | 1056.9 | 1.50087
338.15 K | 1053.6 | 1.49921
343.15 K | 1050.2 | 1.49757
348.15 K | 1046.8 | 1.49593
353.15 K | 1043.4 | 1.49429

[4], Stabinger Viscometer
Conditions | viscosity [mPa·s]
293.15 K | 16.62
298.15 K | 14.19
303.15 K | 12.18
308.15 K | 10.58
313.15 K | 9.02
318.15 K | 8.2
323.15 K | 7.31
328.15 K | 6.56
333.15 K | 5.72
338.15 K | 5.38
343.15 K | 4.91
348.15 K | 4.5
353.15 K | 3.98

CCn1cc[n+](C)c1.C[C@H](N)C(=O)[O-] [1-ethyl-3-methylimidazolium L-alaninate]
[1], 101 kPa, Stabinger Viscometer
Conditions | viscosity [mPa·s]
293.15 K | 382.06
298.15 K | 263.98
303.15 K | 187.79
308.15 K | 137.47
313.15 K | 103.54
318.15 K | 79.34
323.15 K | 62.21
328.15 K | 49.69
333.15 K | 40.5
338.15 K | 33.22
343.15 K | 27.72
348.15 K | 23.38
353.15 K | 20.03

[1], 101.33 kPa
Conditions | mass density [kg/m3]
293.15 K | 1126.3
298.15 K | 1123
303.15 K | 1119.8
308.15 K | 1116.6
313.15 K | 1113.5
318.15 K | 1110.5
323.15 K | 1107.5
328.15 K | 1104.4
333.15 K | 1101.3
338.15 K | 1098.3
343.15 K | 1095.2
348.15 K | 1092.1
353.15 K | 1088.9

[2]
Conditions | refractive index
293.15 K | 1.51366
298.15 K | 1.51223
303.15 K | 1.51081
308.15 K | 1.50937
313.15 K | 1.50793
318.15 K | 1.50651
323.15 K | 1.50505
328.15 K | 1.50358
333.15 K | 1.50217
338.15 K | 1.50074
343.15 K | 1.49932
348.15 K | 1.49795
353.15 K | 1.49656

CCn1cc[n+](C)c1.N#C[C-](C#N)C#N [1-ethyl-3-methyl-1H-imidazolium tricyanomethanide] + CC[n+]1ccn(C)c1.N[C@@H](CO)C(=O)[O-]
Conditions | mass density, [4] [kg/m3] | refractive index, [3]
293.15 K | 1084.6 | 1.51454
298.15 K | 1081 | 1.51286
303.15 K | 1077.5 | 1.51114
308.15 K | 1073.9 | 1.50938
313.15 K | 1070.4 | 1.50765
318.15 K | 1067.1 | 1.50595
323.15 K | 1063.7 | 1.50419
328.15 K | 1060.3 | 1.50255
333.15 K | 1056.9 | 1.50087
338.15 K | 1053.6 | 1.49921
343.15 K | 1050.2 | 1.49757
348.15 K | 1046.8 | 1.49593
353.15 K | 1043.4 | 1.49429

[4], Stabinger Viscometer
Conditions | viscosity [mPa·s]
293.15 K | 16.62
298.15 K | 14.19
303.15 K | 12.18
308.15 K | 10.58
313.15 K | 9.02
318.15 K | 8.2
323.15 K | 7.31
328.15 K | 6.56
333.15 K | 5.72
338.15 K | 5.38
343.15 K | 4.91
348.15 K | 4.5
353.15 K | 3.98

CCn1cc[n+](C)c1.N#C[C-](C#N)C#N [1-ethyl-3-methyl-1H-imidazolium tricyanomethanide] + CCn1cc[n+](C)c1.NCC(=O)[O-]
Conditions | mass density, [4] [kg/m3] | refractive index, [3]
293.15 K | 1084.6 | 1.51454
298.15 K | 1081 | 1.51286
303.15 K | 1077.5 | 1.51114
308.15 K | 1073.9 | 1.50938
313.15 K | 1070.4 | 1.50765
318.15 K | 1067.1 | 1.50595
323.15 K | 1063.7 | 1.50419
328.15 K | 1060.3 | 1.50255
333.15 K | 1056.9 | 1.50087
338.15 K | 1053.6 | 1.49921
343.15 K | 1050.2 | 1.49757
348.15 K | 1046.8 | 1.49593
353.15 K | 1043.4 | 1.49429

[4], Stabinger viscometer
Conditions | viscosity [mPa·s]
293.15 K | 16.62
298.15 K | 14.19
303.15 K | 12.18
308.15 K | 10.58
313.15 K | 9.02
318.15 K | 8.2
323.15 K | 7.31
328.15 K | 6.56
333.15 K | 5.72
338.15 K | 5.38
343.15 K | 4.91
348.15 K | 4.5
353.15 K | 3.98
